Reference: US20210403419A1, “SERINE DERIVATIVE COMPOUND FOR THE PREVENTION OR TREATMENT OF CENTRAL NERVOUS SYSTEM DISEASES” (Astrogen Co., Ltd., priority 2019, published 2021)

How the values were obtained:
[1] = system: hippocampal neuronal cell HT-22; assay: MTT cell viability / neuronal cell proliferation assay; conditions: for effect on cell proliferation in complete medium: L-serine versus AST-009, 25 to 10,000 μg
Description: Murine hippocampal neuronal cell line HT-22 was cultured in Dulbecco's Modified Eagle's Medium (DMEM) supplemented with 10% fetal bovine serum (FBS) and 100 μg/ml gentamycin at 37° C. under a 5% CO2 atmosphere. In this Example, cells at passage 15 or below were used.
Cell proliferation activity was examined by an MTT assay for measuring cell viability. First, hippocampal neuronal cell HT-22 (1×10^4 cells) was incubated with each of serially diluted sample solutions in 96-well plates for 16 hours, and then mixed with 50 μl of MTT (3-(4,5-dimethyl thiazolyl)2,5-diphenyl tetrazolium bromide) solution (1.1 mg/ml), followed by additional incubation for 4 hours. The formed formazan crystal was dissolved in 150 μl of […], and the optical density (OD) at 540 nm was measured using a plate reader.

[2] = system: mouse hippocampal neuronal HT-22 cells treated with DMNQ; assay: Neuronal cell protection against DMNQ-induced oxidative stress (DiOC6 staining); type: cell-based; conditions: DMNQ 10 μM, DMNQ alone 77.8%
Description: First, 1×10^6 cells were washed three times with 2% FBS-containing PBS solution, and the washed cells were suspended in 70% ethanol and fixed at 4° C. for 1 hour. The fixed cells were washed twice with the same solution, suspended in 250 μl of RNase A solution (50 μg/ml concentration), and incubated at 37° C. for 30 minutes to remove RNA from the cells. Then, DNA in the cells was stained at room temperature for 20 minutes by adding 250 μl of 1.12% sodium citrate buffer (pH 8.45) containing 50 μg/ml of propidium iodide. The cells were analyzed with a flow cytometer (FACS Calibur), and the distribution of the cell cycle was examined based on the content of stained DNA in each cell.
The cell protective activity of the selected drug (AST-009) against DMNQ-induced oxidative stress was compared by DiOC6 staining. […] Thus, it could be seen that the cell protective activity of AST-009 was much stronger than that of L-serine.

[3] = Blood-brain barrier (BBB) permeability in ICR mice; type: in vivo; conditions: 500 mg/kg
Description: Each of L-serine and AST-099 was administered to 7-week-old ICR mice (n=3) at a dose of 500 mg/kg, and then the brain tissue and the blood were collected. The concentrations of L-serine distributed in the blood and the brain were quantified using LC/MS, and the BBB permeability was compared between the drugs by calculating the ratio of the concentration of L-serine in the brain to that in the blood.

[4] = L-serine quantified by LC/MS, ICR mice, n=3

| Concentration, Brain tissue [3, 4] [ng/g] | Concentration, Plasma [3, 4] [ng/mL] | Kp ([3]; mouse, brain/plasma, ratio of L-serine concentration in brain to that in blood, ICR mice, n=3, read-out: Cbrain/Cplasma) | Cbrain/Cplasma ([3]; ratio of L-serine concentration in brain to that in blood, ICR mice, n=3) | Structure (SMILES) | HT-22 cell proliferation (cell viability, MTT) ([1]; L-serine/glycerin-deficient medium, treatment concentration of 10,000 μg/ml (=10 mg/ml)) | effect on cell proliferation in complete medium [1] | cell damage rate (membrane potential loss) ([2]; compound 0.5 mg/ml) [%] | cell damage rate (membrane potential loss) ([2]; compound 1 mg/ml) [%] | cell damage rate (membrane potential loss) ([2]; compound 5 mg/ml) [%] | Concentration, Brain tissue ([3]; mouse, in vivo) [ng/g] | Concentration, Plasma ([3]; mouse, in vivo) [ng/mL] | effect on cell proliferation at high concentration ([1]; L-serine/glycerin-deficient medium, concentration of 1 mg/ml or more) |
| --- | --- | --- | --- | --- | --- | --- | --- | --- | --- | --- | --- | --- |
|  |  |  |  | NCCCC[C@H](NC(=O)[C@H](CO)NC(=O)[C@H](CO)NC(=O)[C@H](CO)NC(=O)O)C(=O)O [AST-009, H-Lys-Ser-Ser-Ser-OH] | up to 139% | no significant difference | 64.3 | 45.5 | 20.0 | 7944 ± 427 | 1205 ± 120 |  |
| 7314 ± 2071 | 2121 ± 1192 | 4.16 ± 2.03 | 4.16 ± 2.03 | N[C@@H](CO)C(=O)O [L-serine] |  | no significant difference | 59.9 | 58.7 | 54.5 |  |  | slightly inhibited cell proliferation |
